Measured values as given in publication PMC6211260 (Journal of Enzyme Inhibition and Medicinal Chemistry, 2018).
pIC50: −log10 of the molar value.

What was measured:
Assay type in all cases: cell-based
NCI-60 cell line panel = test: NCI-60 single-dose (10 µM) antiproliferative screening, mean over panel; conditions: single-dose 10 µM, 60-cancer cell line screening
Experimental: (§1) Screening against the cancer cell lines was carried out at the National Cancer Institute (NCI, Bethesda, Maryland, USA) applying the standard protocol of the NCI[22].
The final target compounds were submitted to the National Cancer Institute (NCI), Maryland, USA[23]. Thirty-one compounds were selected to be tested over 60 cell lines at single dose 10 µM.

[1] = system: HT-29 colon cancer cell line; test: NCI five-dose testing; conditions: Homo sapiens; for CC50: HT-29, read-out: LD50 (lethal dose 50); for pIC50 / IC (TGI): HT-29; for pIC50: read-out: IC50; for IC (TGI): read-out: TGI (total growth inhibition concentration)
Experimental: as §1

[2] = system: OVCAR-4 ovarian cancer cell line; test: NCI five-dose testing; conditions: Homo sapiens; for pIC50 / IC (TGI): OVCAR-4; for LC50 (lethal concentration 50): OVCAR-4, read-out: LD50 (lethal dose 50); for IC (TGI): read-out: TGI (total growth inhibition concentration)
Experimental: as §1

[3] = system: MDA-MB-468 breast cancer cell line; test: NCI five-dose testing; conditions: Homo sapiens; for pIC50 / IC (TGI): MDA-MB-468; for CC50: MDA-MB-468, read-out: LD50 (lethal dose 50); for IC (TGI): read-out: TGI (total growth inhibition concentration)
Experimental: as §1

[4] = system: SK-MEL-5 melanoma cell line; test: NCI five-dose testing; conditions: Homo sapiens; for pIC50 / IC (TGI): SK-MEL-5; for LC50 (lethal concentration 50): SK-MEL-5, read-out: LD50 (lethal dose 50); for IC (TGI): read-out: TGI (total growth inhibition concentration)
Experimental: as §1

[5] = system: U251 CNS cancer cell line; test: NCI five-dose testing; conditions: Homo sapiens; for CC50: U-251, read-out: LD50 (lethal dose 50); for pIC50 / IC (TGI): U-251, U251; for pIC50: read-out: IC50; for IC (TGI): read-out: TGI (total growth inhibition concentration)
Experimental: as §1

[6] = system: A498 renal cancer cell line; test: NCI five-dose testing; conditions: Homo sapiens; for pIC50 / IC (TGI): A498; for LC50 (lethal concentration 50%): A498, read-out: LD50 (lethal dose 50); for IC (TGI): read-out: TGI (total growth inhibition concentration)
Experimental: as §1

[7] = system: K-562 leukaemia cell line; test: NCI five-dose testing; conditions: Homo sapiens; for CC50: K562, read-out: LD50 (lethal dose 50); for pIC50 / IC (TGI): K562, K-562; for IC (TGI): read-out: TGI (total growth inhibition concentration)
Experimental: as §1

[8] = system: PC-3 prostate cancer cell line; test: NCI five-dose testing; conditions: Homo sapiens; for LC50 (lethal concentration 50): PC-3, read-out: LD50 (lethal dose 50); for pIC50 / IC (TGI): PC-3; for pIC50: read-out: IC50; for IC (TGI): read-out: TGI (total growth inhibition concentration)
Experimental: as §1

[9] = system: HOP-92 non-small cell lung cancer cell line; test: NCI five-dose testing; conditions: Homo sapiens; for pIC50: HOP-92; for IC (TGI): HOP-92, HOP-92, read-out: TGI (total growth inhibition concentration); for LD50 (lethal dose 50): HOP-92, read-out: LD50 (lethal dose 50)
Experimental: as §1

colon cancer cell lines = test: NCI five-dose testing, subpanel mean; conditions: subpanel III: colon cancer
Experimental: as §1

[10] = system: prostate cancer cell lines; test: NCI five-dose testing, subpanel mean; conditions: subpanel VIII: prostate cancer
Experimental: as §1

Leukaemia cell lines = test: NCI five-dose testing, subpanel mean; conditions: subpanel I: Leukaemia
Experimental: as §1

[11] = system: non-small cell lung cancer cell lines; test: NCI five-dose testing, subpanel mean; conditions: subpanel II: non-small cell lung cancer
Experimental: as §1

[12] = system: ovarian cancer cell lines; test: NCI five-dose testing, subpanel mean; conditions: subpanel VI: ovarian cancer
Experimental: as §1

melanoma cell lines = test: NCI five-dose testing, subpanel mean; conditions: subpanel V: melanoma
Experimental: as §1

CNS cancer cell lines = test: NCI five-dose testing, subpanel mean; conditions: subpanel IV: CNS cancer
Experimental: as §1

breast cancer cell lines = test: NCI five-dose testing, subpanel mean; conditions: subpanel IX: breast cancer
Experimental: as §1

renal cancer cell lines = test: NCI five-dose testing, subpanel mean; conditions: subpanel VII: renal cancer
Experimental: as §1

**Q.** Which results are given for `COc1cccc(-c2nn(-c3ccccc3)cc2-c2ccnc(NCCNS(=O)(=O)c3ccc(C(F)(F)F)cc3)c2)c1` [Compound 1g, N-(2-((4-(3-(3-Methoxyphenyl)-1-phenyl-1H-pyrazol-4-yl)pyridin-2-yl)amino)ethyl)-4-(trifluoromethyl)benzenesulfonamide]?
**A.** inhibition at 10 µM (NCI-60 cell line panel): 92.8%; CC50 [1]: 37.7 µM; pIC50 [1]: 5.63; IC (TGI) [1]: 5.7 µM; pIC50 [2]: 5.53; LC50 (lethal concentration 50) [2]: > 100 µM; IC (TGI) [2]: > 100 µM; pIC50 [3]: 5.48; CC50 [3]: > 100 µM; IC (TGI) [3]: > 100 µM; pIC50 [4]: 5.76; LC50 (lethal concentration 50) [4]: 5.6 µM; IC (TGI) [4]: 3.1 µM; CC50 [5]: 63.4 µM; pIC50 [5]: 5.45; IC (TGI) [5]: 13.9 µM; pIC50 [6]: 5.47; LC50 (lethal concentration 50%) [6]: > 100 µM; IC (TGI) [6]: 6.5 µM; CC50 [7]: > 100 µM; pIC50 [7]: 5.54; IC (TGI) [7]: 19 µM; LC50 (lethal concentration 50) [8]: > 100 µM; pIC50 [8]: 5.54; IC (TGI) [8]: 26.7 µM; pIC50 [9]: 5.67; IC (TGI) [9]: 6.8 µM; LD50 (lethal dose 50) [9]: > 100 µM; pIC50 (colon cancer cell lines): 5.31; pIC50 [10]: 4.89; pIC50 (Leukaemia cell lines): 5.47; pIC50 [11]: 5.20; pIC50 [12]: 5.21; pIC50 (melanoma cell lines): 5.31; pIC50 (CNS cancer cell lines): 5.28; pIC50 (breast cancer cell lines): 5.39; pIC50 (renal cancer cell lines): 5.27

**Q.** For `COc1cccc(-c2nn(-c3ccccc3)cc2-c2ccnc(NCCCNS(=O)(=O)c3cccc(F)c3)c2)c1` [Compound 2h, 3-Fluoro-N-(3-((4-(3-(3-methoxyphenyl)-1-phenyl-1H-pyrazol-4-yl)pyridin-2-yl)amino)propyl)benzenesulfonamide], which inhibition at 10 µM (NCI-60 cell line panel) is on record?
**A.** 76.8%

**Q.** And the CC50 [1]?
**A.** > 100 µM

**Q.** What about the pIC50 [1] of the same molecule?
**A.** 5.54

**Q.** What about the IC (TGI) [1] of the same molecule?
**A.** 18.8 µM

**Q.** And the pIC50 [2]?
**A.** 5.48

**Q.** What about the LC50 (lethal concentration 50) [2] of the same molecule?
**A.** > 100 µM

**Q.** What about the IC (TGI) [2] of the same molecule?
**A.** > 100 µM

**Q.** What about the pIC50 [3] of the same molecule?
**A.** 5.46

**Q.** What about the CC50 [3] of the same molecule?
**A.** > 100 µM

**Q.** What about the IC (TGI) [3] of the same molecule?
**A.** 30.4 µM

**Q.** And the pIC50 [4]?
**A.** 5.73

**Q.** What about the LC50 (lethal concentration 50) [4] of the same molecule?
**A.** 7.6 µM

**Q.** And the IC (TGI) [4]?
**A.** 3.7 µM

**Q.** What about the CC50 [5] of the same molecule?
**A.** > 100 µM

**Q.** And the pIC50 [5]?
**A.** 5.32

**Q.** And the IC (TGI) [5]?
**A.** > 100 µM

**Q.** And the pIC50 [6]?
**A.** 5.45

**Q.** And the LC50 (lethal concentration 50%) [6]?
**A.** > 100 µM

**Q.** What about the IC (TGI) [6] of the same molecule?
**A.** > 100 µM

**Q.** And the CC50 [7]?
**A.** > 100 µM

**Q.** And the pIC50 [7]?
**A.** 5.48

**Q.** And the IC (TGI) [7]?
**A.** > 100 µM

**Q.** What about the LC50 (lethal concentration 50) [8] of the same molecule?
**A.** > 100 µM

**Q.** And the pIC50 [8]?
**A.** 5.53

**Q.** What about the IC (TGI) [8] of the same molecule?
**A.** > 100 µM

**Q.** What about the pIC50 [9] of the same molecule?
**A.** 5.62

**Q.** And the IC (TGI) [9]?
**A.** > 100 µM

**Q.** And the LD50 (lethal dose 50) [9]?
**A.** > 100 µM

**Q.** And the pIC50 (colon cancer cell lines)?
**A.** 5.33

**Q.** What about the pIC50 [10] of the same molecule?
**A.** 5.33

**Q.** What about the pIC50 (Leukaemia cell lines) of the same molecule?
**A.** 5.50

**Q.** And the pIC50 [11]?
**A.** 5.30

**Q.** What about the pIC50 [12] of the same molecule?
**A.** 5.41

**Q.** What about the pIC50 (melanoma cell lines) of the same molecule?
**A.** 5.38

**Q.** And the pIC50 (CNS cancer cell lines)?
**A.** 5.35

**Q.** What about the pIC50 (breast cancer cell lines) of the same molecule?
**A.** 5.46

**Q.** What about the pIC50 (renal cancer cell lines) of the same molecule?
**A.** 5.37

**Q.** What does the source list for `O=S(=O)(NCCCNc1cc(-c2cn(-c3ccccc3)nc2-c2cccc(O)c2)ccn1)c1cccc2ccccc12` [Compound 2q, N-(3-((4-(3-(3-Hydroxyphenyl)-1-phenyl-1H-pyrazol-4-yl)pyridin-2-yl)amino)propyl) naphthalene-1-sulfonamide]?
**A.** CC50 [1]: 4.5 µM; pIC50 [1]: 5.91; IC (TGI) [1]: 1.7 µM; pIC50 [2]: 5.72; LC50 (lethal concentration 50) [2]: > 100 µM; IC (TGI) [2]: > 100 µM; pIC50 [3]: 5.74; CC50 [3]: > 100 µM; IC (TGI) [3]: 6 µM; pIC50 [4]: 5.82; LC50 (lethal concentration 50) [4]: 7.4 µM; IC (TGI) [4]: 3.4 µM; CC50 [5]: 41.3 µM; pIC50 [5]: 5.89; IC (TGI) [5]: 13.2 µM; pIC50 [6]: 5.96; LC50 (lethal concentration 50%) [6]: > 100 µM; IC (TGI) [6]: 6.6 µM; CC50 [7]: > 100 µM; pIC50 [7]: 6.04; IC (TGI) [7]: 4.4 µM; LC50 (lethal concentration 50) [8]: > 100 µM; pIC50 [8]: 5.71; IC (TGI) [8]: 44.9 µM; pIC50 [9]: 5.81; IC (TGI) [9]: 7.2 µM; LD50 (lethal dose 50) [9]: > 100 µM; pIC50 (colon cancer cell lines): 5.58; pIC50 [10]: 5.46; pIC50 (Leukaemia cell lines): 5.71; pIC50 [11]: 5.52; pIC50 [12]: 5.28; pIC50 (melanoma cell lines): 5.64; pIC50 (CNS cancer cell lines): 5.63; pIC50 (breast cancer cell lines): 5.71; pIC50 (renal cancer cell lines): 5.52
